In US20050048508A1, “Trehalose receptor and method for detecting trehalose with the same” (KABUSHIKI KAISHA HAYASHIBARA SEIBUTSU KAGAKU KENKYUJO, priority 2002, published 2005):

Target: T1, T1R2 and T1R3 without G protein α-subunit (Mus musculus, UniProt Q925D8+Q925I4, E350G/G527D/I706N/P352R/R175Q)
T1 construct: expressed in transfected cells; host or cells: 293 cells, RCB 1637 (human embryonic kidney)
T1 sequence (Q925I4 20-843 R175Q/E350G/P352R/G527D): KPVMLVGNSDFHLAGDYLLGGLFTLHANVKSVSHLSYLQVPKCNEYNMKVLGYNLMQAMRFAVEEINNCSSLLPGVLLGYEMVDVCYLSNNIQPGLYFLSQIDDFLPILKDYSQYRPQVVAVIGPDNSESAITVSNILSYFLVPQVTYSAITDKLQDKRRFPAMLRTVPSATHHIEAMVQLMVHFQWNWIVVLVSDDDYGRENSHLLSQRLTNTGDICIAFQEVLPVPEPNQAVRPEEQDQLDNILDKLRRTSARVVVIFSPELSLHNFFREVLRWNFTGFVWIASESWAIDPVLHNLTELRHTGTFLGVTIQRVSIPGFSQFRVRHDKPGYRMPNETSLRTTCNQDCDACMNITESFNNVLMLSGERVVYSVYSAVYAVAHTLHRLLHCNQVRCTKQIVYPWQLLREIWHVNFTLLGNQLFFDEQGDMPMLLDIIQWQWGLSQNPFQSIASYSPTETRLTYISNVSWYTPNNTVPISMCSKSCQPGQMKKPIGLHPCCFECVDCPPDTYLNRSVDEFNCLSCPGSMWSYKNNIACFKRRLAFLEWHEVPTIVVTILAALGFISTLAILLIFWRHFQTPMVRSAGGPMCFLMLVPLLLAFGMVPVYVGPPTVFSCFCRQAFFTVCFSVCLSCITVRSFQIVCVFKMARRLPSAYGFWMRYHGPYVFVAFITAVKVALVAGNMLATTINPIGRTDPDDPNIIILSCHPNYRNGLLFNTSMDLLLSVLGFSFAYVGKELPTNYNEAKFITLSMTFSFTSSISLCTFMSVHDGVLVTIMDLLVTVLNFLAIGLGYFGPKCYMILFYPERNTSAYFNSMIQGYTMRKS
T1 sequence (Q925D8 21-858 I706N): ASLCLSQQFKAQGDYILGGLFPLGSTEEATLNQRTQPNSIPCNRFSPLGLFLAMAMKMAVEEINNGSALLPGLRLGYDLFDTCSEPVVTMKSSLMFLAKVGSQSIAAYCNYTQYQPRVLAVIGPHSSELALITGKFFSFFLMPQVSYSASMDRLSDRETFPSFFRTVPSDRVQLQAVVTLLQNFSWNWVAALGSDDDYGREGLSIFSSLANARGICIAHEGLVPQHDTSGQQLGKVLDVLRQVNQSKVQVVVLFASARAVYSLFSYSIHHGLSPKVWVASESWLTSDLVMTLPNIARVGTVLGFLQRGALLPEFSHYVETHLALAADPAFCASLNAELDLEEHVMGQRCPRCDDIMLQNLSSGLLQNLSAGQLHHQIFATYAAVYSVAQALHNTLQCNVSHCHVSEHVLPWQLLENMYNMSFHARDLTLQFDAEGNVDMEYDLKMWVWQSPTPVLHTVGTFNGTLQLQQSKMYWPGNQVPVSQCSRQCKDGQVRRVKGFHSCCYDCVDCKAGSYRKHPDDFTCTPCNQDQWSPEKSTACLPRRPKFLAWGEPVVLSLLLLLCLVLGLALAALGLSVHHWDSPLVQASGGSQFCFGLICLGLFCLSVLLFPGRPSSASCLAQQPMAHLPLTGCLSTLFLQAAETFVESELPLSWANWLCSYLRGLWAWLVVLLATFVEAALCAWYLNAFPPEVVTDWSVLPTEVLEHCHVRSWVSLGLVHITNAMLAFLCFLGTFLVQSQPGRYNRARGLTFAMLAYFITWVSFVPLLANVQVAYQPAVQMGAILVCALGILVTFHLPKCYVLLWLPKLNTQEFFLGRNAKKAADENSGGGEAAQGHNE
Test: Intracellular calcium ion assay, 293 cells expressing T1R2 and T1R3 without G protein α-subunits
Format: cell-based
Settings: 293 cells: T1R2 + T1R3, no G protein α-subunit; 0.67 ml of 1 M saccharide solution added to 2 ml cell suspension

Row | SMILES | Influx of calcium ion
1 | OC[C@H]1O[C@H](O[C@H]2O[C@H](CO)[C@@H](O)[C@H](O)[C@H]2O)[C@H](O)[C@@H](O)[C@@H]1O [Trehalose] | Negative
2 | OC[C@H]1O[C@@](CO)(O[C@H]2O[C@H](CO)[C@@H](O)[C@H](O)[C@H]2O)[C@@H](O)[C@@H]1O [Sucrose, reference compound] | Negative
